Measured values: patent US20260294863A1, “METHOD OF TREATING FIBROTIC-RELATED CONDITION” (YISSUM RESEARCH DEVELOPMENT COMPANY OF THE HEBREW …, priority 2023, published 2026)
Entries after “also recorded” stand apart in the source; their conditions may differ.

How the values were obtained:
TNFα [1] = assay: Secretion of TNFα from BzATP/LPS-activated microglia (ELISA); assay type: cell-based, Balb/C mice
Protocol: (§1) Experiments were performed on primary microglial cells isolated from brains of neonatal Balb/C mice as previously described (Reichert and Rotshenker, 2003). The brains were stripped of their meninges and enzymatically dissociated. Cells were plated on Poly-L-lysine coated flasks for one week, re-plated for 1- to 2-hr on bacteriological plates and non-adherent cells were washed away. Microglia were propagated by incubation in 20% of medium, conditioned by the L-cell line that produces mouse-CSF. They were identified by morphology and positive immune-reactivity to P2y12, F4/80, complement receptor-3 and Galectin-3/MAC-2 (Reichert and Rotshenker 2003; Gitik et al. 2011).
(§2) Cytokines were measured as previously described (Shamash et al. 2002) using ELISA Max deluxe set (Biolegend, CA, USA) for secreted TNFα and IL-6 proteins and ELISA DuoSet (R&D systems, UK) for secreted and cell associated IL-1β, according to manufacturer's instructions.
(§3) The effect of ladostigil at concentrations of 1×10^−13 M to 1×10^−9 M on the secretion of cytokine proteins was assessed by adding it to microglia for 2 hr before LPS (0.75 μg/ml) and BzATP (400 μM). Other microglia were treated similarly with the steroid, budesonide as a reference standard at concentrations of 1× 10^−13 to 1× 10^−11 M. Measurements of cytokine secretion were performed 8 hrs after addition of LPS and BzATP. Since the levels of secreted IL-1β were still low, samples were concentrated 2- to 4-fold by an Amicon ultra-centrifugal filter device (Merck-Millipore, Ireland). ELISA was used to quantify the levels of cytokine proteins. Protein content in the microglia lysate was measured by Bradford and levels of cytokines were calculated and presented as pg/μg of microglial protein.

IL6 = assay: Secretion of IL6 from BzATP/LPS-activated microglia (ELISA); assay type: cell-based, Balb/C mice
Protocol: as §1, §2, §3

TNFAIP3 = assay: Levels of TNFAIP3 protein in microglial cytoplasm; assay type: cell-based, Balb/C mice
Protocol: as §1
(§4) The addition of BzATP/LPS to microglia increased cytoplasmic levels of TNFαIP3 protein and nuclear ERGR1 protein.

EGR1 = assay: Nuclear levels of EGR1 in microglia activated by BzATP and LPS; assay type: cell-based, Balb/C mice
Protocol: as §1, §4

[2] = Body weight in bleomycin-induced lung fibrosis; assay type: in vivo, C57BL/6JOlaHsd mice; conditions: bleomycin lung fibrosis
Protocol: The animal model of bleomycin-induced lung fibrosis is widely used to characterize the potential inhibitory effect of newly developed drugs (Distler et al. 2019). Experiments were performed in C57BL/6JOlaHsd male and female mice aged 12-13 weeks. Male mice weighed 23-27.3 g and female mice, 19.4-21.1 g. They were housed under pathogen-free conditions, up to 6 per cage, in IVC cages under a controlled temperature of 22-24° C., humidity and alternating 12-h light/dark cycles and provided with food and water ad libitum. In order to minimize the stress of daily injection, ladostigil (5 mg/Kg/day) was administered by micro-osmotic pumps, implanted subcutaneously under ketamine/xylazine anesthesia, 5 days before administration of bleomycin, and delivered for 3 weeks to mice of each sex. Saline (2-3/sex) and bleomycin controls were anesthetized as described above. Bleomycin solution (0.25 mg/kg in 50 μl) was instilled into the lumen of the trachea as shown in a video by Ehrentraut et al. (2019). […] Mice were weighed daily and sacrificed on day 21. Bronchial fluid was collected as described in Ehrentraut et al. (2019). TNFα and IL-6 in the bronchial fluid lavage was measured by ELISA as described in the preceding section.
Experiments were performed in C57BL/6JOlaHsd male mice aged 12-13 weeks as described for ladostigil. AN1284 (2.5 mg/kg/day) was administered by micro-osmotic pumps, implanted subcutaneously under ketamine/xylazine anesthesia, 5 days before administration of bleomycin and delivered for 3 weeks. Mice were weighed daily, sacrificed on day 21 and bronchial fluid was collected. Fibrosis was measured by staining with Sirius red as described for ladostigil. TNFα and IL-6 in the bronchial fluid lavage was measured by ELISA as described for ladostigil.

TNFα [3] = assay: TNFα in bronchial fluid, bleomycin-induced lung fibrosis (ELISA); assay type: in vivo, C57BL/6JOlaHsd mice; conditions: ladostigil, bleomycin-induced lung fibrosis
Protocol: (§5) The animal model of bleomycin-induced lung fibrosis is widely used to characterize the potential inhibitory effect of newly developed drugs (Distler et al. 2019). Experiments were performed in C57BL/6JOlaHsd male and female mice aged 12-13 weeks. Male mice weighed 23-27.3 g and female mice, 19.4-21.1 g. They were housed under pathogen-free conditions, up to 6 per cage, in IVC cages under a controlled temperature of 22-24° C., humidity and alternating 12-h light/dark cycles and provided with food and water ad libitum. In order to minimize the stress of daily injection, ladostigil (5 mg/Kg/day) was administered by micro-osmotic pumps, implanted subcutaneously under ketamine/xylazine anesthesia, 5 days before administration of bleomycin, and delivered for 3 weeks to mice of each sex. Saline (2-3/sex) and bleomycin controls were anesthetized as described above. Bleomycin solution (0.25 mg/kg in 50 μl) was instilled into the lumen of the trachea as shown in a video by Ehrentraut et al. (2019). […] TNFα and IL-6 in the bronchial fluid lavage was measured by ELISA as described in the preceding section.
(§6) Experiments were performed in C57BL/6JOlaHsd male mice aged 12-13 weeks as described for ladostigil. […] Fibrosis was measured by staining with Sirius red as described for ladostigil. TNFα and IL-6 in the bronchial fluid lavage was measured by ELISA as described for ladostigil.

IL-6 = IL-6 in bronchial fluid, bleomycin-induced lung fibrosis (ELISA); assay type: in vivo, C57BL/6JOlaHsd mice; conditions: ladostigil, bleomycin-induced lung fibrosis
Protocol: as §5, §6

[4] = Body weight in bleomycin-induced skin sclerosis; assay type: in vivo, C57BL/6 mice; conditions: 10 mg/kg/day in drinking fluid
Protocol: (§7) Male C57BL/6 mice aged 8 weeks were housed under pathogen-free conditions at a controlled temperature of 22-24° C., humidity and alternating 12-h light/dark cycles and provided with food and water ad libitum. Skin sclerosis was induced as described by Ravanetti et al, (2020). A small incision was made in the skin at the back caudal to the scapulae and subcutaneous pocket was created into which an Alzet micro-osmotic pump was implanted, and the incision closed with two stiches and a surgical clip. The pumps contained bleomycin, (delivered at the rate of 60 U/kg body weight) or saline (control) and were removed 10 days after implantation. The mice were monitored daily until they recovered completely and weighed twice weekly from the beginning of the experiment.
(§8) Ladostigil (10 mg/kg/day) was administered in the drinking fluid to 10 mice, housed 2/cage, from 3 days before bleomycin pump installation until the end of the experiment. The fluid intake of the mice was measured daily. The dose of ladostigil was adjusted accordingly. Bleomycin alone, (10 mice) and saline controls (6 mice) received regular drinking fluid.

skin sclerosis = assay: Dermal and hypodermal thickness in bleomycin-induced skin sclerosis; assay type: in vivo, C57BL/6 mice; conditions: ladostigil 10 mg/kg/day + bleomycin; p<0.05
Protocol: as §7, §8
Skin was harvested on the gluteal region to avoid dermal fibrosis artifact due to proximity to the site of implant. For histological assessment, the samples were dehydrated in a graded ethanol series, clarified in xylene, and paraffin embedded. They were mounted on slides and paraffin was removed. Sections of 5 μm thickness were cut with a rotary microtome and stained with hematoxylin and eosin (H&E)

TGFβ = assay: TGFβ-containing cells in skin, bleomycin-induced skin sclerosis; assay type: in vivo, C57BL/6 mice; conditions: ladostigil 10 mg/kg/day + bleomycin; p<0.05
Protocol: as §7, §8

[5] = all concentrations tested, added 2 hrs before BzATP and LPS, 0.1% BSA, p<0.01
[6] = microglia, ladostigil 1×10^−10 M on top of BzATP/LPS

In the case of `C#CCN[C@@H]1CCc2ccc(OC(=O)N(C)CC)cc21` [Ladostigil, 6-(N-ethyl, N-methylcarbamyloxy)-N propargyl-1 (R)-aminoindan hemitartrate], the minimal effective concentration (TNFα [1]; Mus musculus, microglia, BzATP/LPS, medium containing BSA, 8 hrs, read-out: lowest concentration that significantly decreased TNFα secretion) is reported as 1e-07 µM, the “reduction of TNFα release” value (TNFα [1]; [5]) is reported as “reduced the 3 cytokines significantly” and the Emax (IL6; Mus musculus, Microglia, 8 h, 1×10^−11-1×10^−9 M, read-out: maximal reduction of IL6) is reported as about 50%. The minimal effective concentration (IL6; Mus musculus, microglia, BzATP/LPS, medium containing BSA, 8 hrs, read-out: lowest concentration that significantly decreased IL6 secretion) was 1e-07 µM, the “reduction of IL6 release” value (IL6; [5]) was “reduced the 3 cytokines significantly” and the “reduction of IL6 compared with reduction of TNF” value (IL6; all concentrations tested, p<0.001) was “greater than those of TNF”. The “Mean conc. ± SEM of TNFAIP3 in microglial cytoplasm” value (TNFAIP3; BzATP/LPS, ladostigil 1×10^−10 M, Medium 19.8 ± 0.6) was 28.8 ± 0.9, the “change in cytoplasmic TNFαIP3 protein” value (TNFAIP3; [6]) was “further increase” and the “Mean percent of nuclei with positive EGR1 protein immunoreactivity ± SEM” value (EGR1; BzATP/LPS, ladostigil 1×10^−10 M, Medium 19.0 ± 4.2) was 56.0 ± 3.9%. The “change in nuclear EGR1 protein” value (EGR1; [6]) was “decreased”, the body weight loss ([2]; females, 5 and 10 mg/kg) was “significantly reduced weight loss” and the body weight loss ([2]; males, only at 10 mg/kg) was “significantly reduced weight loss”. The “TNFα in bronchial fluid” value (TNFα [3]) was “generally not affected; also recorded: did not reduce”, the “IL-6 in bronchial fluid” value (IL-6) was “generally not affected; also recorded: did not reduce” and the “weight gain compared with bleomycin” value ([4]; days 18, 21, 24 and 27) was “greater than in those on bleomycin”. The “increase in body weight” value ([4]; days 24-27, skin sclerosis) was 15%, the dermal thickness (skin sclerosis) was “significant reduction of dermal thickness” and the hypodermal thickness (skin sclerosis) was “increase of hypodermal thickness”. For the same molecule, the “number of TGFβ-containing cells in the skin” value (TGFβ) was “significantly reduced the number of TGFβ-containing cells”.
